The source of these data is patent US7183099B2, “Inhibitors of autoinducer transporters” (Princeton University, priority 2001, dated 2007).

The test system of assay [1] is V. harveyi reporter strain BB170 (Sensor 1−, Sensor 2+). It counts as cell-based, Vibrio harveyi. The protocol: Cell-free culture fluids from E. coli, S. typhimurium and V. harveyi strains were tested for the presence of signaling substances that could induce luminescence in the V. harveyi reporter strain BB170 or BB886. […] Positive control wells contained 10 μl of cell-free culture fluid from strain V. harveyi BB152 (Autoinducer-1^−, Autoinducer-2^+) or V. harveyi BB120 (Autoinducer-1^+, Autoinducer-2^+). Negative control wells contained 10 μl of sterile growth medium. The microtiter dishes were shaken in a rotary shaker at 175 rpm at 30° C.
The cell density was measured by diluting the same aliquots of cells used for measuring luminescence, spreading the dilutions onto solid LM medium, incubating the plates overnight at 30° C., and counting the resulting colonies the following day. […] Cell-free culture supernatants from V. harveyi or S. typhimurium strains were added to a final concentration of 10% (v/v) at the time of the first measurement. In control experiments, 10% (v/v) of AB medium, LB medium or LB medium containing 0.5% glucose was added instead of cell-free culture fluids.

Assay [2] deals with T1, Lsr ABC transporter (Salmonella typhimurium, UniProt Q8ZKQ1).
T1 construct: containing a wild type lsr operon; endogenous in cells; host or cells: S. typhimurium 14028 derivatives in a luxS null background (parent SS007, luxS::T-POP; also MET342, ΔlsrR)
The experiment in a line: Removal of exogenous AI-2 from S. typhimurium culture fluids. It counts as cell-based. The following applies: for input AI-2 activity remaining: wild type lsrR strain. The protocol:
(§1) Cultures of S. typhimurium luxS null strains containing a wild type lsr operon or containing mutations inactivating lsr genes were grown to mid-exponential phase in LB at 37° C. AI-2 prepared by our in vitro method was added to the cultures, and the cultures were incubated with the AI-2 for an hour. Subsequently, the cells were removed from the culture fluid by centrifugation, and the resulting cell-free culture fluids were assayed for AI-2 activity using the V. harveyi AI-2 bioassay. This assay involves measuring the increase in light production of a V. harveyi quorum sensing reporter strain that induces bioluminescence exclusively in response to the presence of AI-2. In the present experiment, the bioassay allowed us to determine the level of AI-2 activity remaining in the culture fluids of the different S. typhimurium mutants. Since all the S. typhimurium strains we used in this experiment contained null mutations in luxS, the only AI-2 that could be present in the cell-free culture fluids came from that that we added exogenously.
(§2) Relative levels of AI-2 in cell-free culture fluids of S. typhimurium strains of interest were measured using a V. harveyi bioluminescence assay, as described previously (Bassler et al., 1993; Bassler et al., 1997). Cell-free culture fluids were prepared as described (Surette and Bassler, 1998; Surette et al., 1999). These preparations were assayed for AI-2 activity at 10% (vol/vol), using V. harveyi reporter strain BB170 (luxN::Tn5), as described (Bassler et al., 1993). AI-2 activity is reported as fold induction over background of bioluminescence. To examine the role of Lsr in the uptake of AI-2, cultures of S. typhimurium were grown overnight, diluted 1:100 into fresh LB, and grown for a total of 4 hours. During the final hour of growth, the cells were incubated with 70 μM in vitro prepared AI-2 for specified times (Schauder et al., 2001). Subsequently, the cultures were chilled on ice and cell-free culture fluids were prepared. The AI-2 remaining in these preparations was measured in the V. harveyi bioluminescence assay. Assays were performed in duplicate.

The test system of assay [3] is Lsr ABC transporter. Described as above. The class given is cell-based. The following applies: 1 h. The protocol: as §1, §2
Assay [4] has as its system lsr operon (lsr-lacZ fusions). Nature of the assay: β-galactosidase assay of lsr::MudJ (lacZ) fusions. It counts as cell-based, S. typhimurium. Here is the method: Various S. typhimurium lsr::MudJ fusion strains were grown to late exponential phase in LB medium supplemented with AI-2 prepared by our in vitro method at an approximate concentration of 70 μM. This is roughly twice the concentration of AT-2 that we estimate to be present in S. typhimurium cell-free supernatants (not shown). As a control, we performed the same experiment with material from in vitro reactions carried out with SAH and Pfs enzyme in the absence of the LuxS enzyme. This reaction produces adenine and SRH. Homocysteine was added to this control mixture following the reaction to compensate for the homocysteine that would be produced by LuxS. Therefore, the only component absent from the control reaction was AI-2.
Cultures of S. typhimurium that had been grown overnight were diluted 1:100 into fresh LB and grown for 4 hours. For strains containing plasmids, cultures were diluted in LB supplemented with Amp. When necessary, AI-2 was synthesized in vitro and added to the growth media at the time of inoculation (Schauder et al., 2001). Cells from 1 ml of these cultures were harvested and resuspended in 1 ml Z buffer. P-galactosidase assays were performed using a microtitre plate assay, as described (Slauch and Silhavy, 1991). β-galactosidase units were calculated as (0.1*mOD420/min)/[OD600 of cells*Volume (ml)]. All assays were performed in triplicate.

The mark [5] stands for this setting: wild type lsr strain (luxS null), 1 h incubation.

Each structure is given as a SMILES string.

For `CC(=O)C(=O)C(O)CO` (stereo not drawn) [AI-2, 4,5-dihydroxy-2,3-pentanedione], in assay [1] (0.4 M NaCl shock fluid activity incubated 2 h with S. typhimurium cells pre-incubated in 0.1 M NaCl), the signaling activity degraded result is on record as “greater than 98%”. For the same compound, in assay [1] (in vitro prepared AI-2 added to S. typhimurium culture, chilled immediately), the “input AI-2 activity (induction of V. harveyi bioluminescence reporter)” value was 1000 fold. Besides, the “stimulation in light production in the bioassay” value in assay [1] (in vitro reaction: dialyzed LuxS− cell extract + SAM + LuxS protein, MW<5000 filtrate) is listed as “over 500 fold”. For the same compound, in assay [2] (inactivation of lsrR, 1 h incubation), the “activity gone from the culture fluids” value was “over 99%”. For the same compound, the “AI-2 activity remaining (induction of the bioassay strain)” value in assay [2] (setting [5]) is on record as 80 fold. Moreover, in assay [2] (setting [5]), the “disappearance of AI-2 activity from the culture fluid” value came out at 92%. Moreover, the “input AI-2 activity remaining” value in assay [2] (2 min) was determined as 97%; in assay [2] (15 min) it was 85%; in assay [2] (30 min) it was 82%; in assay [2] (45 min), 75%; in assay [2] (60 min), 6%. Moreover, the “elimination of AI-2 from the culture fluids” value in assay [3] (MudJ insertion mutants in lsrA, lsrC and lsrB) is “unable to eliminate AI-2 from the culture fluids”. Further, the “level of AI-2 versus input” value in assay [3] (ΔlsrR, lsrC::MudJ double mutant) was “the level of AI-2 did not decrease compared to the input activity”. Also, the “expression of the lsr-lacZ fusions” value in assay [4] (strains lacking luxS, 70 μM exogenous AI-2) is “induces the expression of the lsr-lacZ fusions to levels above that when wild type luxS is present”; in assay [4] (wild type luxS strains, exogenous AI-2 added) it was “additional stimulation of the expression of the lsr-lacZ fusions”.
